Data: patent US8921373B2, “Compounds having TRPV1 antagonistic activity and uses thereof” (Shionogi & Co., Ltd., priority 2010, dated 2014)
pIC50: −log10 of the molar value.

Tests used:
[1] = Measurement of body temperature increase (rectal body temperature); format: in vivo, rat; conditions: Crl/SD rats, oral, 1 mg/mL at 10 mL/kg
Protocol: Test Animals: Selection of rats (Crl/SD rats, 7 weeks, male) for this study was based on rectal body temperature measured during the morning of the day of dosing. In addition, animals selected for this study were acclimated to both the rectal measurement procedure and to being handled and dosed to minimize spontaneous, stress-induced, increases in body temperature. The study was conducted in the animal care laboratories where the room temperature and humidity were kept. The rats were free to move and food and water during the study. Each rat was numbered with color line on the tail, housed in each cage and permitted the normal range of movement. Immediately before each body temperature was measured, they transferred to a single cage at each measurement. To reduce stress which affected the body temperature, the rats were covered with towels at the measurement. The thermistor probe was then carefully inserted into the rectum of each rat and left in place until the value on the digital display had stabilized.
Assays: On the day before dosing, rectal body temperatures were measured at 9:00, 10:00, 11:00, 12:30, 13:30, 14:30 and 15:30 to familiarize the animals with the measurement procedure prior to administration of the test or control treatments. The rats were also dosed by oral gavage without vehicle at 12:30 to acclimate and familiarized the animals with the handling and dosing procedure.
On the day of dosing, only rats whose rectal body temperatures were within the range of 37.0° C. to 37.7° C. were selected for this study. Rectal body temperatures were measured at 9:00, 10:00 and 11:00. Rats whose rectal body temperatures were over 37.9° C. at 10:00, and were outside the range of 37.0° C. to 37.7° C. at 11:00 were excluded from the study. The selected rats were divided to several groups based on their rectal body temperatures at 11:00. Rectal body temperatures of the selected rats were measured again at 12:30, and any rats whose rectal body temperature was 38.0° C. or greater were excluded from the study.
Following the group assignment, test compounds or vehicle was administrated to the rats. Each test compound was dissolved in 0.5% methylcellurose and the final concentration of the compound was adjusted to 1 mg/mL. Test compound was orally administrated in a volume 10 mL/kg once. 10 mL/kg of vehicle (0.5% methylcellurose) was administered to the vehicle group. The rectal body temperatures were measured 0.5, 1 and 2 hrs after the administration. The study was conducted in the animal care laboratories where the room temperature and humidity were kept.
Body temperature increase (ΔTb) was calculated from the difference from an average of the vehicle group at each time point.

human recombinant TRPV1 [2] = target: T1, human recombinant TRPV1 (Homo sapiens (Human), UniProt Q8NER1); assay: TRPV1 pH-Based Assay (Protocol 2, Ca2+ response in TRPV1/CHO cells, Fura-2); format: cell-based
Protocol: (§1) For Protocol 2, a Chinese Hamster Ovary cell line (CHO) that has been engineered to constitutively express human recombinant TRPV1 was used (TRPV1/CHO cells). The TRPV1/CHO cell line was generated as described below.
TRPV1/CHO cells were seeded in the 96-well clear-bottom black-wall plate (Nunc) at densities of 1-2×10^4 cells/well and grown in 100 μL of culture medium (alpha-MEM supplemented with 10% FBS, 20 mM HEPES, 1 mg/mL geneticin and 1% antibiotic-antimycotic mixed stock solution) for 1-2 days before the experiment.
(2) The 96-well plate was incubated at 37° C. for 45 min.
(3) The loading buffer was removed from each well. […] The wells were then refilled with 80 μL of measuring buffer.
(4) After an incubation at 4° C. for 15 min, the 96-well plate was transferred to FDSS-3000 (Hamamatsu Photonics, Japan).
(5) The Fura-2 fluorescent intensity was monitored at a wavelength of 340 nm and at 380 nm, respectively, at a rate of 0.5 Hz for a total of 240 seconds. After 16 time points (32 sec) of baseline detection, 20 μL of agonist solution was added to each well. The final volume was 100 μL/well.
(6) Fluorescence intensity ratio refers to the fluorescence intensity at 340 nm over the fluorescence intensity at 380 nm at a particular time point. The baseline was set as the average of the fluorescent intensity ratios for the first 16 time points before the addition of agonist solution. The maximum response was the highest fluorescent intensity ratio during the 60 time points following addition of agonist solution.
(7) Maximal signal ratios from each well were calculated as output data using the FDSS-3000 analysis program. Data were analyzed using Excel (Microsoft) and XLfit (idbs) software.
Two different agonist solutions with different H2SO4 concentrations were used for the pH assay (FIG. 3A). For one half of a 96-well plate one agonist solution was used, for the other half the other agonist solution. The agonist solutions were obtained by diluting sulfuric acid (H2SO4, 1M) with measuring buffer. The concentrations for the two agonist solutions were determined as described above in Section 2 of Protocol 2.
The sulfuric acid concentrations between the two agonist solutions differed by 0.5 mM. […] After 1:4 dilution of the agonist solutions, the final sulfuric acid concentration was 3.2 mM and 3.3 mM, respectively. The resulting pH value for the pH assay was 5.0 to 5.1.
Test compounds were dissolved in DMSO to yield 1 mM stock solutions. […] The thereby-obtained solutions were further diluted in measuring buffer (1:100) as 10× stock serial dilutions with a DMSO concentration of 1%. 10 μL of a 10× stock was added into each well at step 3.3.(4) of Protocol 2.
Steps (1) and (2) of this Assay were the same as steps 2.2.(1) and 2.2.(2) of Protocol 2, respectively.
(3) The cells were washed twice with 150 μL of measuring buffer (mentioned in 2.2.(3) of Protocol 2, no probenecid). The wells were subsequently refilled with 70 μL of measuring buffer.
(4) Either 10 μl of measuring buffer or 10 μL of 10× stock serial dilution of test compound (described in 3.2. above) were applied to each well. Usually, only one test compound was tested per 96-well plate. The number of replicates per 96-well plate for a particular antagonist at a particular concentration was 7×2 since two different sulfuric acid concentrations were used per 96-well plate (N=7×2) (FIG. 3).
Step (5) was the same as 2.2.(4) above.
(6) Fura-2 fluorescent intensity was monitored as described in 2.2.(5) above. After 16 time points of baseline detection, 20 μL of agonist solution (measuring buffer titrated with H2SO4 to yield pH 5.0-5.1 when mixed 1:4 with the measuring buffer containing test compound) was added to each well (final volume 100 μL/well).
Steps (7) and (8) were as described in 2.2.(6) and 2.2.(7) above, respectively.
(1) The pH values of the buffer in the wells of A1→H1 and A7→H7 (longitudinally; FIG. 3) were measured one by one using a portable pH meter.

human recombinant TRPV1 [3] = target: T1, human recombinant TRPV1; assay: TRPV1 Capsaicin-Based Assay (Protocol 2, TRPV1/CHO cells, Fluo-4, FLIPR); format: cell-based
Protocol: as §1
One day prior to assay, TRPV1/CHO cells were seeded in 96-well clear-bottom black plates (20,000 cells/well) in growth media. On the day of the experiment, the cells were washed with 0.2 mL 1× Hank's Balanced Salt Solution (Life Technologies) containing 1.6 mM CaCl2 and 20 mM HEPES, pH 7.4 (“wash buffer”). Subsequently, the cells were loaded by incubation in 0.1 mL of wash buffer containing Fluo-4 at 3 μM final concentration. After 1 hour, the cells were washed twice with 0.2 mL wash buffer and resuspended in 0.1 mL wash buffer. The plates were then transferred to a Fluorescence Imaging Plate Reader (Molecular Devices). Fluorescence intensity was monitored for 15 seconds to establish a baseline. Subsequently, test compounds diluted in assay buffer (1× Hank's Balanced Salt Solution containing 1 mM CaCl2 and 20 mM HEPES, pH 7.4) containing 1% DMSO were added to the cell plate and fluorescence was monitored for 2 minutes. […] Human TRPV1 was then activated by the addition of 50 μL capsaicin (100 nM final concentration) and plates incubated for an additional 3 min. Data were collected over the entire time course and analyzed using Excel and the curve-fitting formula GraphPad Prism.

[4] = TRPV1/CHO cells, pH 5.0-5.1, read-out: IC50 value by the pH-Based Assay
[5] = TRPV1/CHO cells, capsaicin 100 nM final, read-out: IC50 value by the Capsaicin-Based Assay

T1 sequence (Q8NER1 whole entry): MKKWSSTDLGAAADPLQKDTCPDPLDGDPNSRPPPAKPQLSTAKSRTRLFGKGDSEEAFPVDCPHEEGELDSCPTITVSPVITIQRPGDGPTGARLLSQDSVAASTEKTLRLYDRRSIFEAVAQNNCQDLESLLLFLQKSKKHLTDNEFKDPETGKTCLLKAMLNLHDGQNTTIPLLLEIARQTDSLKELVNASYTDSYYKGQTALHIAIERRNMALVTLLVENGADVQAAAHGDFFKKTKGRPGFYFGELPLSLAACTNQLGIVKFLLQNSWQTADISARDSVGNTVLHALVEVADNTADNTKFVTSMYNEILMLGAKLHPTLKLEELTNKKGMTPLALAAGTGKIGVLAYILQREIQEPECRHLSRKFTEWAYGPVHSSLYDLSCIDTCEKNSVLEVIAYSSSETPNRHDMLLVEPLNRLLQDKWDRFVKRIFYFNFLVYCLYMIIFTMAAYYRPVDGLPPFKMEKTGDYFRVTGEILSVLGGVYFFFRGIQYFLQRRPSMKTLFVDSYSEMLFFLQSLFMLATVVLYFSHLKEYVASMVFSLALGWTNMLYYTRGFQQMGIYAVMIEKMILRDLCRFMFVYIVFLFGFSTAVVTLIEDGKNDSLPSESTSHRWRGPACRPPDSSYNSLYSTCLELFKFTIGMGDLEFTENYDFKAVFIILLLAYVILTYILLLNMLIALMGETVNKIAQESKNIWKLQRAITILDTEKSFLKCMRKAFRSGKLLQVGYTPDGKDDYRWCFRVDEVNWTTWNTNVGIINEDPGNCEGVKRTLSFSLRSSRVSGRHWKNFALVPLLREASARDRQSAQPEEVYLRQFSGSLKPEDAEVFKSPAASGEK

Body temperature increase [1]	pIC50 (human recombinant TRPV1 [2]; [4])	pIC50 (human recombinant TRPV1 [3]; [5])	Structure (SMILES)	further results
less than 0.5 °C	≥ 7.30		O=C(Nc1ccc(C(F)(F)F)c(Cl)c1)N1CC=C(c2ncc(C[C@H](O)CO)cc2Cl)CC1 [AAF, (S)-N-(3-Chloro-4-(trifluoromethyl)phenyl)-4-(3-chloro-5-(2,3-dihydroxypropyl)pyridin-2-yl)-5,6-dihydropyridine-1(2H)-carboxamide]	
less than 0.5 °C	≥ 7.30		Cc1cc(NC(=O)N2CC=C(c3ncc(C[C@@H](O)CO)cc3F)CC2)ccc1C(F)(F)F [ACA, (R)-5-(2,3-dihydroxypropyl)-3-fluoro-N-(3-methyl-4-(trifluoro-methyl)phenyl)-5′,6′-dihydro-[2,4′-bipyridine]-1′(2′H)-carboxamide]	
less than 0.5 °C	≥ 7.30		O=C(Nc1nc2ccccc2s1)N1CCN(c2ncc(C[C@@H](O)CO)cc2Cl)CC1 [ADV]	
less than 0.5 °C			Cc1cc(NC(=O)N2CC=C(c3ncc(C[C@H](O)CO)cc3C)CC2)ccc1C(F)(F)F [ACL, (S)-4-(5-(2,3-dihydroxypropyl)-3-methylpyridin-2-yl)-N-(3-methyl-4-(trifluoromethyl)phenyl)-5,6-dihydropyridine-1(2H)-carboxamide]	
less than 0.5 °C			Cc1cc(NC(=O)N2CC=C(c3ncc(C[C@@H](O)CO)cc3F)CC2)ccc1OC(F)(F)F [ACB, (R)-5-(2,3-dihydroxypropyl)-3-fluoro-N-(3-methyl-4-(trifluoromethoxy)phenyl)-5′,6-dihydro-[2,4′-bipyridine]-1′(2′H)-carboxamide]	
less than 0.5 °C			O=C(Nc1nc2ccc(F)cc2s1)N1CCC(F)(c2ncc(C[C@@H](O)CO)cc2Cl)CC1 [AEF, (R)-4-(3-chloro-5-(2,3-dihydroxypropyl)pyridin-2-yl)-4-fluoro-N-(6-fluorobenzo[d]thiazol-2-yl)piperidine-1-carboxamide]	
	≥ 7.30	≥ 7.30	C[C@H]1CN(c2ncc(C[C@@H](O)CO)cc2Cl)CCN1C(=O)Nc1nc2ccc(F)cc2s1 [ADY]	
	≥ 7.30	≥ 7.30	Cc1cc(NC(=O)N2CCC(F)(c3ncc(C[C@H](O)CO)cc3Cl)CC2)ccc1C(F)(F)F [ACS, (S)-4-(3-Chloro-5-(2,3-dihydroxypropyl)pyridin-2-yl)-4-fluoro-N-(3-methyl-4-(trifluoromethyl)phenyl)piperidine-1-carboxamide]	
	≥ 7.30	≥ 7.30	C[C@H]1CN(c2ncc(C[C@H](O)CO)cc2C(F)(F)F)CCN1C(=O)Nc1nc2ccc(F)cc2s1 [AGW]	
			O=C(Nc1nc2cc(F)c(F)cc2s1)N1CCN(c2ncc(C[C@H](O)CO)cc2F)CC1 [AFB]	pIC50 (human recombinant TRPV1 [3]): ≥ 7.30; pIC50 (human recombinant TRPV1 [2]): ≥ 7.30
	≥ 7.30	≥ 7.30	Cc1cc(NC(=O)N2CCC(F)(c3ncc(C[C@H](O)CO)cc3C)CC2)ccc1OC(F)(F)F [ACM, (S)-4-(5-(2,3-dihydroxypropyl)-3-methylpyridin-2-yl)-4-fluoro-N-(3-methyl-4-(trifluoromethoxy)phenyl)piperidine-1-carboxamide]	
less than 0.5 °C			Cc1cc(NC(=O)N2CC=C(c3ncc(C[C@@H](O)CO)cc3C)CC2)ccc1C(F)(F)F [ACD, (R)-4-(5-(2,3-dihydroxypropyl)-3-methylpyridin-2-yl)-N-(3-methyl-4-(trifluoromethyl)phenyl)-5,6-dihydropyridine-1(2H)-carboxamide]	
	≥ 7.30	≥ 7.30	C[C@H]1CN(c2ncc(C[C@@H](O)CO)cc2F)CCN1C(=O)Nc1nc2ccc(Cl)cc2s1 [AEK]	
	≥ 7.30	≥ 7.30	C[C@H]1CN(c2ncc(C[C@H](O)CO)cc2C(F)(F)F)CCN1C(=O)Nc1nc2ccccc2s1 [AGY]	
	≥ 7.30	≥ 7.30	Cc1cc(C[C@@H](O)CO)cnc1N1CCN(C(=O)Nc2nc3ccc(F)cc3s2)CC1 [ADA, (R)-4-(5-(2,3-dihydroxypropyl)-3-methylpyridin-2-yl)-N-(6-fluorobenzo[d]-thiazol-2-yl)piperazine-1-carboxamide]	
	≥ 7.30	≥ 7.30	Cc1cc(NC(=O)N2CCC(F)(c3ncc(C[C@@H](O)CO)cc3C)CC2)ccc1OC(F)(F)F [ACF, (R)-4-(5-(2,3-dihydroxypropyl)-3-methylpyridin-2-yl)-4-fluoro-N-(3-methyl-4-(trifluoromethoxy)phenyl)piperidine-1-carboxamide]	
less than 0.5 °C			Cc1cc(NC(=O)N2CC=C(c3ncc(C[C@H](O)CO)cc3C)CC2)ccc1OC(F)(F)F [ACK, (S)-4-(5-(2,3-dihydroxypropyl)-3-methylpyridin-2-yl)-N-(3-methyl-4-(trifluoromethoxy)phenyl)-5,6-dihydropyridine-1(2H)-carboxamide]	
	≥ 7.30	≥ 7.30	C[C@H]1CN(c2ncc(C[C@H](O)CO)cc2Cl)CCN1C(=O)Nc1nc2ccc(F)cc2s1 [AEB]	
